Results reported in US7524964B2, “Tetrahydrothiopyrano pyrazole cannabinoid modulators” (Janssen Pharmaceutica NV, priority 2005, dated 2009).
Like-named read-outs stand apart in the source and are kept apart here.

How the values were obtained:
[1] = molecular target: T1, human CB-2 receptor (Homo sapiens, UniProt P34972); assay: Binding assay, cannabinoid CB2 receptor ([3H]-CP-55,940 displacement); settings: for inhibition at 1 µM: test concentration 1 μM (superscript b)
T1 construct: expressed in transfected cells; host or cells: SK-N-MC cells, pcDNA3 CB-2 (human), semi-purified membranes
Protocol: (§1) Binding Assay for CB1 or CB2 Agonists or Inverse Agonists
(§2) The human CB-1 and CB-2 receptors were stably expressed in SK-N-MC cells transfected with pcDNA3 CB-1 (human) or pcDNA3 CB-2 (human). The cells were grown in T-180 cell culture flasks under standard cell culture conditions at 37° C. in a 5% CO2 atmosphere. The cells were harvested by trypsinization and homogenized in a homogenization buffer (10 mM Tris, 0.2 mM MgCl2, 5 mM KCl, with protease inhibitors aprotinin, leupeptin, pepstatin A and bacitracin) and centrifuged (2000 g). The supernatant was then centrifuged in 2M sucrose (31,300 g) to produce a semi-purified membrane pellet. The pellet was resuspended in homogenization and store at −80° C.
(§3) On the day of the assay, the pellet was thawed on ice and diluted in assay buffer (50 mM Tris-HCl, 5 mM MgCl2, 2.5 mM EDTA, 0.5 mg/mL fatty acid free bovine serum albumin, pH 7.5). The diluted membrane was added with buffer, test compound or standard and the radioligand [H]^3+-CP-55,940_(0.2 nM) to the wells of a 96-well polypropylene plate. Non-specific binding was measured in wells containing 10 uM WIN 55,212. The plate was covered and incubated for 90 minutes at 30° C. The contents were then aspirated onto a Packard Unifilter G/C filter bottom plate prewet with 0.5% polyethyleneimine. The wells of the polypropylene plate were rinsed and aspirated seven times with a 0.9% saline-0.5% Tween 20 solution. The Unifilter plate was dried, a scintillation cocktail was added to each well and the counts representing binding were quantitated in a TopCount scintillation counter.
(§4) The IC50 binding values for compounds tested were calculated by linear regression and were obtained from studies in which varying compound concentrations were used. Where an IC50 was not obtained, test results are provided as percent inhibition at a test concentration of ^a0.2 μM, ^b1 μM or ^c10 μM.

[2] = molecular target: human CB1 receptor (Homo sapiens, UniProt P21554); assay: Binding assay, cannabinoid CB1 receptor ([3H]-CP-55,940 displacement); design: expressed in transfected cells; host or cells: SK-N-MC cells, pcDNA3 CB-1 (human), semi-purified membranes; settings: for inhibition at 0.2 µM: test concentration 0.2 μM (superscript a); for inhibition at 0.2 µM / inhibition at 1 µM / inhibition at 10 µM: read-out: CB1 binding percent inhibition; for inhibition at 1 µM: test concentration 1 μM (superscript b); for inhibition at 10 µM: test concentration 10 μM (superscript c)
Protocol: as §1, §2, §3, §4

[3] = test concentration 0.2 μM (superscript a), read-out: CB2 binding percent inhibition
[4] = read-out: CB2 binding percent inhibition

T1 sequence (P34972 whole entry): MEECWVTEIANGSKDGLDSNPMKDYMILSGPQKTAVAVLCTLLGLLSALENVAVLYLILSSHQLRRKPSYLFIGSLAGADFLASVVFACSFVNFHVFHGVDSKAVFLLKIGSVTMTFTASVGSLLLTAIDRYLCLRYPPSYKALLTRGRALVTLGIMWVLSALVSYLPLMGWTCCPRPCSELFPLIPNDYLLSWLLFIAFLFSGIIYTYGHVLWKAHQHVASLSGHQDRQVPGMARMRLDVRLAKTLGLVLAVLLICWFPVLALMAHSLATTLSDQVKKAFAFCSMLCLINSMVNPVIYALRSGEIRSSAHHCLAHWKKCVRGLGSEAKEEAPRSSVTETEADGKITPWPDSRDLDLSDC
Sequence of human CB1 receptor (P21554 whole entry): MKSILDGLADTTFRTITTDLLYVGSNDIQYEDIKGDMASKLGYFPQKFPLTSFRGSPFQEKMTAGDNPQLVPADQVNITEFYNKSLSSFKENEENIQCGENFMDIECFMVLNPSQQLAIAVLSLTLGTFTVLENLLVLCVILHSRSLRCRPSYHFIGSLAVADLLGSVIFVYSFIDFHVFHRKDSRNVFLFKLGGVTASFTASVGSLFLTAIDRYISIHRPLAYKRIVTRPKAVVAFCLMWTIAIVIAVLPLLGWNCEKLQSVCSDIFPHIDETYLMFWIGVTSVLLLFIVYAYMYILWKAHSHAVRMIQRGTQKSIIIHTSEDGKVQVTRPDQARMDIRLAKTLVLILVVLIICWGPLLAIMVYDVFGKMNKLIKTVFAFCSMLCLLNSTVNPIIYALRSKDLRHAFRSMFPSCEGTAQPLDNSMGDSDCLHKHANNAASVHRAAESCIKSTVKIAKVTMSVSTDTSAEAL

SMILES	inhibition at 0.2 µM [1, 3] [%]	inhibition at 0.2 µM [2] [%]	other results
O=C(N[C@H]1c2ccccc2C[C@H]1O)c1nn(-c2ccc(Cl)cc2Cl)c2c1CS(=O)(=O)C/C2=C\c1ccc(F)cc1 [Cpd 70, (7Z)-1-(2,4-dichloro-phenyl)-7-(4-fluoro-benzylidene)-5,5-dioxo-4,5,6,7-tetrahydro-1H-5λ^6-thiopyrano[4,3-c]pyrazole-3-carboxylic acid [(1S,2R)-2-hydroxy-indan-1-yl]-amide]	19	–	IC50 [2]: 12 nM
O=C(NNc1ccc(Cl)cc1Cl)c1nn(-c2ccc(Cl)cc2Cl)c2c1C[S+]([O-])C/C2=C\c1ccc(F)cc1 (stereo not drawn) [Cpd 77, (7Z)-1-(2,4-dichloro-phenyl)-7-(4-fluoro-benzylidene)-5-oxo-4,5,6,7-tetrahydro-1H-5λ^4-thiopyrano[4,3-c]pyrazole-3-carboxylic acid N′-(2,4-dichloro-phenyl)-hydrazide]	9	55	–
CN(NC(=O)c1nn(-c2ccc(Cl)cc2)c2c1CS(=O)(=O)C/C2=C\c1ccc(F)cc1)c1ccccc1 [Cpd 100, (7Z)-1-(4-chloro-phenyl)-7-(4-fluoro-benzylidene)-5,5-dioxo-4,5,6,7-tetrahydro-1H-5λ^6-thiopyrano[4,3-c]pyrazole-3-carboxylic acid N′-methyl-N′-phenyl-hydrazide]	–	–	inhibition at 0.2 µM [1, 4]: 9%; IC50 [2]: 25 nM
O=C(N[C@@H]1CCC[C@H]1O)c1nn(-c2ccc(Cl)cc2Cl)c2c1C[S+]([O-])C/C2=C\c1ccc(F)cc1 (stereo partly drawn) [Cpd 76, (7Z)-1-(2,4-dichloro-phenyl)-7-(4-fluoro-benzylidene)-5-oxo-4,5,6,7-tetrahydro-1H-5λ^4-thiopyrano[4,3-c]pyrazole-3-carboxylic acid [(1R,2R)-2-hydroxy-cyclopentyl]-amide]	0	20	–
CC1CCCC(C)N1NC(=O)c1nn(-c2ccc(Cl)cc2Cl)c2c1CS(=O)(=O)C/C2=C\c1ccc(F)cc1 (stereo not drawn) [Cpd 108, (7Z)-1-(2,4-dichloro-phenyl)-7-(4-fluoro-benzylidene)-5,5-dioxo-4,5,6,7-tetrahydro-1H-5λ^6-thiopyrano[4,3-c]pyrazole-3-carboxylic acid (2,6-dimethyl-piperidin-1-yl)-amide]	18	88	–
C[C@@H](NS(=O)(=O)/C=C/c1nn(-c2ccc(F)cc2F)c2c1CSCC2Cc1cccc(F)c1)C1CCCCC1 (stereo partly drawn) [Cpd 39, (E)-2-[1-(2,4-difluoro-phenyl)-7-(3-fluoro-benzyl)-1,4,6,7-tetrahydro-thiopyrano[4,3-c]pyrazol-3-yl]-ethenesulfonic acid [(1R)-1-cyclohexyl-ethyl]-amide]	37	55	–
O=C(NN1CCCCC1)c1nn(-c2ccc(F)cc2F)c2c1CS(=O)(=O)C/C2=C\c1ccc(F)cc1 [Cpd 106, (7Z)-1-(2,4-difluoro-phenyl)-7-(4-fluoro-benzylidene)-5,5-dioxo-4,5,6,7-tetrahydro-1H-5λ^6-thiopyrano[4,3-c]pyrazole-3-carboxylic acid piperidin-1-ylamide]	6	32	–
C[C@H](NC(=O)c1c2c(nn1-c1ccc(Cl)cc1Cl)/C(=C/c1ccc(F)cc1)CS(=O)(=O)C2)C1CCCCC1 [Cpd 85, (7Z)-2-(2,4-dichloro-phenyl)-7-(4-fluoro-benzylidene)-5,5-dioxo-4,5,6,7-tetrahydro-2H-5λ^6-thiopyrano[4,3-c]pyrazole-3-carboxylic acid [(1S)-1-cyclohexyl-ethyl]-amide]	20	–	IC50 [2]: 35 nM
O=S1(=O)Cc2c(/C=C/S(=O)(=O)NN3CCCCC3)nn(-c3ccc(F)cc3F)c2C(Cc2cccc(F)c2)C1 (stereo not drawn) [Cpd 45, (E)-2-[1-(2,4-difluoro-phenyl)-7-(3-fluoro-benzyl)-5,5-dioxo-4,5,6,7-tetrahydro-1H-5λ^6-thiopyrano[4,3-c]pyrazol-3-yl]-ethenesulfonic acid piperidin-1-ylamide]	8	33	–
O=S(=O)(/C=C/c1nn(-c2ccc(F)cc2F)c2c1CSCC2Cc1cccc(F)c1)NN1CCOCC1 (stereo not drawn) [Cpd 41, (E)-2-[1-(2,4-difluoro-phenyl)-7-(3-fluoro-benzyl)-1,4,6,7-tetrahydro-thiopyrano[4,3-c]pyrazol-3-yl]-ethenesulfonic acid morpholin-4-ylamide]	8	9	–
O=C(NCc1ccccn1)c1nn(-c2ccc(Cl)cc2Cl)c2c1CS(=O)(=O)C/C2=C\c1ccc(F)cc1 [Cpd 73, (7Z)-1-(2,4-dichloro-phenyl)-7-(4-fluoro-benzylidene)-5,5-dioxo-4,5,6,7-tetrahydro-1H-5λ^6-thiopyrano[4,3-c]pyrazole-3-carboxylic acid (pyridin-2-ylmethyl)-amide]	13	56	–
C[C@H](NC(=O)c1c2c(nn1-c1ccc(Cl)cc1Cl)/C(=C/c1ccc(F)cc1)CSC2)C1CCCCC1 [Cpd 90, (7Z)-2-(2,4-dichloro-phenyl)-7-(4-fluoro-benzylidene)-2,4,6,7-tetrahydro-thiopyrano[4,3-c]pyrazole-3-carboxylic acid [(1S)-1-cyclohexyl-ethyl]amide]	18	31	–
C[C@H](NC(=O)c1nn(-c2ccc(Cl)cc2Cl)c2c1C[S+]([O-])C/C2=C\c1ccc(F)cc1)c1ccccc1 (stereo partly drawn) [Cpd 74, (7Z)-1-(2,4-dichloro-phenyl)-7-(4-fluoro-benzylidene)-5-oxo-4,5,6,7-tetrahydro-1H-5λ^4-thiopyrano[4,3-c]pyrazole-3-carboxylic acid [(1S)-1-phenyl-ethyl]-amide]	8	45	–
C[C@@H](NS(=O)(=O)/C=C/c1c2c(nn1Cc1ccccc1)CCSC2)C1CCCCC1 [Cpd 6, (E)-2-(2-benzyl-2,4,6,7-tetrahydro-thiopyrano[4,3-c]pyrazol-3-yl)-ethenesulfonic acid [(1R)-1-cyclohexyl-ethyl]-amide]	–	–	inhibition at 1 µM [1, 4]: 0%; inhibition at 1 µM [2]: 16%
O=C(N[C@@H]1CCC[C@H]1O)c1nn(-c2ccc(Cl)cc2Cl)c2c1CS(=O)(=O)C/C2=C\c1ccc(F)cc1 [Cpd 67, (7Z)-1-(2,4-dichloro-phenyl)-7-(4-fluoro-benzylidene)-5,5-dioxo-4,5,6,7-tetrahydro-1H-5λ^6-thiopyrano[4,3-c]pyrazole-3-carboxylic acid [(1R,2R)-2-hydroxy-cyclopentyl]-amide]	15	46	–
O=C(NN1CCCCC1)c1c2c(nn1-c1ccc(Cl)cc1Cl)/C(=C/c1ccc(F)cc1)CS(=O)(=O)C2 [Cpd 83, (7Z)-2-(2,4-dichloro-phenyl)-7-(4-fluoro-benzylidene)-5,5-dioxo-4,5,6,7-tetrahydro-2H-5λ^6-thiopyrano[4,3-c]pyrazole-3-carboxylic acid piperidin-1-ylamide]	17	–	IC50 [2]: 27 nM
C[C@H](NS(=O)(=O)/C=C/c1c2c(nn1Cc1ccccc1)CCS(=O)(=O)C2)C1CCCCC1 [Cpd 17, (E)-2-(2-benzyl-5,5-dioxo-4,5,6,7-tetrahydro-2H-5λ^6-thiopyrano[4,3-c]pyrazol-3-yl)-ethenesulfonic acid [(1S)-1-cyclohexyl-ethyl]-amide]	–	–	inhibition at 1 µM [1, 4]: 24%; inhibition at 1 µM [2]: 0%
CC(NS(=O)(=O)/C=C/c1c2c(nn1Cc1ccccc1)CC[S+]([O-])C2)C1CCCCC1 (stereo not drawn) [Cpd 26, (E)-2-(2-benzyl-5-oxo-4,5,6,7-tetrahydro-2H-5λ^4-thiopyrano[4,3-c]pyrazol-3-yl)-ethenesulfonic acid (1-cyclohexyl-ethyl)-amide]	–	–	CB2 binding percent inhibition ([1]; test concentration 10 μM (superscript c), 10 µM): 32%; inhibition at 10 µM ([1]; test concentration 10 μM (superscript c), read-out: CB2 binding percent inhibition): 22%
C[C@H](NC(=O)/C=C/c1nn(Cc2ccccc2)c2c1CS(=O)(=O)CC2)c1ccccc1 [Cpd 36, (2E)-3-(1-benzyl-5,5-dioxo-4,5,6,7-tetrahydro-1H-5λ^6-thiopyrano[4,3-c]pyrazol-3-yl)-N-[(1S)-1-phenyl-ethyl]-acrylamide]	–	–	inhibition at 1 µM [2]: 25.5%; inhibition at 10 µM [2]: 1%
CC(NS(=O)(=O)/C=C/c1nn(Cc2ccccc2)c2c1C[S+]([O-])CC2)c1ccccc1 (stereo not drawn) [Cpd 29, (E)-2-(1-benzyl-5-oxo-4,5,6,7-tetrahydro-1H-5λ^4-thiopyrano[4,3-c]pyrazol-3-yl)-ethenesulfonic acid (1-phenyl-ethyl)-amide]	–	–	inhibition at 10 µM [2]: 8%
